Key:
[1] = biological target: T1, NLRP3 (Homo sapiens, UniProt Q96P20); assay: THP-1 pyroptosis assay (caspase-1 p20 in supernatant by Western blot); assay type: cell-based; details: PMA-differentiated THP-1, LPS 50 ng/ml 4 h, compound 30 min, nigericin 15 μM 45 min; caspase-1 p20 Western blot
T1 construct: host or cells: THP-1 cells, PMA-differentiated, LPS-primed, nigericin-stimulated
Experimental: (§1) THP-1 cell lines (procell, #CL-0233) were cultured in RPMI-1640 medium (Gibco, #C11875500BT) supplemented with 10% FBS, 100 U/ml penicillin, 100 µg/ml streptomycin and 0.05 mM β-mercaptoethanol (BME). THP-1 cells were seeded at 5×10^5/ml in 12 well plates and were differentiated into macrophages by incubation with 5 ng/ml PMA (Sigma, #P8139-1MG) for 48 h. Cells were washed with PBS and then were primed with 50 ng/ml LPS (InvivoGen, #tlrl-b5lps) for 4 h. Medium were removed and replaced with serum free medium (SFM) containing compound (2.5-40 nM) or MCC950 (5-25 nM) for 30 min. Cells were then stimulated with 15 μM nigericin (Invivogen, #tlrl-nig) for 45 min.
The protein of supernatants was concentrated using StrataClean™ resin (Agilent, #400714) according to the manufacturer's instructions. The protein samples were resolved on 4-20% SDS-PAGE gels and transferred onto 0.45 PVDF membrane (Immobilon-P #IPVH00010) using a wet transfer system. Membranes were blocked in 5% (w/v) dried milk in PBST for 1 h at room temperature. Membranes were incubated with primary antibody (Adipogen, #AG-20B-0048B-C100) diluted in Primary Antibody Dilution Buffer (Beyotime, #P0023A-100 ml) according to the manufacturer's instructions, followed by incubation with the IgG(H+L) (HRP-labeled Goat Anti-Mouse IgG(H+L) (Beyotime, #A0216) diluted in 1% (w/v) dried milk in PBST for 1 h. The protein expression was visualized using Super ECL Detection Reagent (YEASEN,
FIG. 1. Results of Western blots for THP-1 cell-based pyroptosis assay using the cleavage of caspase-1 into p20 as reporting indication of NLRP3 inhibition. […] Molecule N-027 (Compound #51) and N-027B (Compound #53) inhibits NLRP3 inflammasome activation in macrophages, N-027 IC50 (caspase-1)<5 nM; N-027B IC50 (caspase-1) 1 nM. THP-1 cells were primed for 4 h with LPS (50 ng/ml), and then LPS-primed THP-1 cells were incubated with N-027 or N-027B for 30 min and then stimulated with nigericin (15 μM) for 45 min. Caspase-1 (p20) in supernatants were measured by Western blots.

[2] = biological target: T1, NLRP3; assay: IL-1β assay (ELISA of THP-1 culture supernatant); assay type: cell-based; details: PMA-differentiated THP-1, LPS 50 ng/ml 4 h, compound 30 min, nigericin 15 μM 45 min; Human IL-1β ELISA
Experimental: as §1
The culture supernatant of THP-1 was removed and analyzed using Human IL-1β ELISA Kit according to the manufacturer's instructions (Beyotime, #PI305). The IL-1β concentration was measured at 450 nm wavelength of absorbance and calculated.

T1 sequence (Q96P20 whole entry): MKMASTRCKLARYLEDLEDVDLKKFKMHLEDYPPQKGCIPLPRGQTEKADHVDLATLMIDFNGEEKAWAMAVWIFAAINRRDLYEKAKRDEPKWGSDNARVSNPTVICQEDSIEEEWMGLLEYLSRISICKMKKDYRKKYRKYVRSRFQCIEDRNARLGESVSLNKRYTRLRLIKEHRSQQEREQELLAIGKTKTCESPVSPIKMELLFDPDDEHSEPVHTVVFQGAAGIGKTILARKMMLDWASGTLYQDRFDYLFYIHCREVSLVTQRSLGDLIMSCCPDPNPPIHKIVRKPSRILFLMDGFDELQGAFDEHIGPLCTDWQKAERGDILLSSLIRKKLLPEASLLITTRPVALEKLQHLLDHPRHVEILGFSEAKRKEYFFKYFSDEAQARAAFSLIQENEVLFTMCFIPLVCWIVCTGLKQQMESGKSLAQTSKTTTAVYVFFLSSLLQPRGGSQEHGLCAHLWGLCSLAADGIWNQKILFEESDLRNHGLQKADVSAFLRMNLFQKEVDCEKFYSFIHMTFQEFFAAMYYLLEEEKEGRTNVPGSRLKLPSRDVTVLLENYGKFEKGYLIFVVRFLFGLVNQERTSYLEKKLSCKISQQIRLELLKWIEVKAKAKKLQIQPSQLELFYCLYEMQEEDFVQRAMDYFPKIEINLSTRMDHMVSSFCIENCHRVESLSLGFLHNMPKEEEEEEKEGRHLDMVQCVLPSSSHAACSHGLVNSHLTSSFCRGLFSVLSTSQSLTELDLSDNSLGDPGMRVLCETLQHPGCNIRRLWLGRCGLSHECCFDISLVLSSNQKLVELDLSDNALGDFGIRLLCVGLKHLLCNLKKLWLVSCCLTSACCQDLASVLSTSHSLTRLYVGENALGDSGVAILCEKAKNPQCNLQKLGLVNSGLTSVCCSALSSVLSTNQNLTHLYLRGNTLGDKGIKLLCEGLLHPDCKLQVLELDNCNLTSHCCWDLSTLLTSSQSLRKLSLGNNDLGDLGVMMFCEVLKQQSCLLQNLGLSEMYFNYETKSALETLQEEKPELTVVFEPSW

Row | Compound | IC50 [1] | IC50 [2]
1 | O=c1[nH]c(N2CCCC2)nc2nn(-c3ccc(Br)cc3C(F)(F)F)nc12 [Compound 75, 2-(4-bromo-2-(trifluoromethyl)phenyl)-5-(pyrrolidin-1-yl)-2,6-dihydro-7H-[1,2,3]triazolo[4,5-d]pyrimidin-7-one] | 2.5 nM | < 10 nM
2 | Cc1cc(C2CC2)cc(C)c1-n1nc2nc(N3CCOC[C@H]3C)[nH]c(=O)c2n1 [Compound 107, (R)-2-(4-cyclopropyl-2,6-dimethylphenyl)-5-(3-methylmorpholino)-2H-[1,2,3]triazolo[4,5-d]pyrimidin-7(6H)-one] | – | < 33 nM
3 | O=c1[nH]c(N2CCCC2)nc2nn(-c3ccc(Br)cc3Cl)nc12 [Compound 97, 2-(4-bromo-2-chlorophenyl)-5-(pyrrolidin-1-yl)-2,6-dihydro-7H-[1,2,3]triazolo[4,5-d]pyrimidin-7-one] | 5 nM | < 20 nM
4 | Cc1cc(C2CC2)cc(C)c1-n1nc2nc(N3CCCC3)[nH]c(=O)c2n1 [Compound 53, 2-(4-cyclopropyl-2,6-dimethylphenyl)-5-(pyrrolidin-1-yl)-2,6-dihydro-7H-[1,2,3]triazolo[4,5-d]pyrimidin-7-one] | ≤ 1 nM | < 5 nM
5 | Cc1cc(C2CC2)cc(C)c1-n1nc2nc(N3CCOCC3)[nH]c(=S)c2n1 [Compound 4, 2-(4-cyclopropyl-2,6-dimethylphenyl)-5-morpholino-2,6-dihydro-7H-[1,2,3]triazolo[4,5-d]pyrimidine-7-thione] | > 1000 nM | > 1000 nM
6 | Cc1cc(Cl)cc(C)c1-n1nc2nc(N3CCCC3)[nH]c(=O)c2n1 [Compound 63, 2-(4-chloro-2,6-dimethylphenyl)-5-(pyrrolidin-1-yl)-2,6-dihydro-7H-[1,2,3]triazolo[4,5-d]pyrimidin-7-one] | 10 nM | –
7 | O=c1[nH]c(N2CCCC2)nc2nn(-c3ccc(C4CC4)cc3C(F)(F)F)nc12 [Compound 77, 2-(4-cyclopropyl-2-(trifluoromethyl)phenyl)-5-(pyrrolidin-1-yl)-2,6-dihydro-7H-[1,2,3]triazolo[4,5-d]pyrimidin-7-one] | < 10 nM | < 10 nM
8 | Cc1cc(C2CC2)cc(C)c1-n1nc2nc(N3CCOCC3)n(C)c(=O)c2n1 [Compound 108, 2-(4-cyclopropyl-2,6-dimethyl-phenyl)-6-methyl-5-morpholino-triazolo[4,5-d]pyrimidin-7-one] | – | < 500 nM
9 | O=c1[nH]c(N2CCCC2)nc2nn(-c3c(F)cc(Br)cc3Cl)nc12 [Compound 98, 2-(4-bromo-2-chloro-6-fluorophenyl)-5-(pyrrolidin-1-yl)-2,6-dihydro-7H-[1,2,3]triazolo[4,5-d]pyrimidin-7-one] | 7.5 nM | < 15 nM
10 | CCN1CCN(c2nc3nn(-c4c(C)cc(C5CC5)cc4C)nc3c(=O)[nH]2)CC1 [Compound 102, 2-(4-cyclopropyl-2,6-dimethylphenyl)-5-(4-ethylpiperazin-1-yl)-2,6-dihydro-7H-[1,2,3]triazolo[4,5-d]pyrimidin-7-one] | < 40 nM | > 100 nM
11 | COc1nc(N2CCOCC2)nc2nn(-c3c(C)cc(C4CC4)cc3C)nc12 [Compound 109, 4-[2-(4-cyclopropyl-2,6-dimethyl-phenyl)-7-methoxy-triazolo[4,5-d]pyrimidin-5-yl]morpholine] | – | > 10000 nM
12 | Cc1cc(C2CC2)cc(C)c1-n1nc2nc(N(C)CCN(C)C)[nH]c(=O)c2n1 [Compound 101, 2-(4-cyclopropyl-2,6-dimethylphenyl)-5-((2-(dimethylamino)ethyl)(methyl)amino)-2,6-dihydro-7H-[1,2,3]triazolo[4,5-d]pyrimidin-7-one] | < 10 nM | < 100 nM
13 | Cc1cc(Br)cc(C)c1-n1nc2nc(N3CCOCC3)[nH]c(=S)c2n1 [Compound 2, 2-(4-bromo-2,6-dimethylphenyl)-5-morpholino-2,6-dihydro-7H-[1,2,3]triazolo[4,5-d]pyrimidine-7-thione] | < 1600 nM | < 1600 nM
14 | O=c1[nH]c(N2CCCC2)nc2nn(-c3c(F)cc(Br)cc3F)nc12 [Compound 99, 2-(4-bromo-2,6-difluorophenyl)-5-(pyrrolidin-1-yl)-2,6-dihydro-7H-[1,2,3]triazolo[4,5-d]pyrimidin-7-one] | < 10 nM | < 20 nM
15 | O=c1[nH]c(N2CCOCC2)nc2nn(-c3c(F)cc(C4CC4)cc3C(F)(F)F)nc12 [Compound 105, 2-(4-cyclopropyl-2-fluoro-6-(trifluoromethyl)phenyl)-5-morpholino-2,6-dihydro-7H-[1,2,3]triazolo[4,5-d]pyrimidin-7-one] | < 6 nM | < 10 nM
16 | Cc1cc(Br)cc(C)c1-n1nc2nc(N3CCCC3)[nH]c(=S)c2n1 [Compound 52, 2-(4-bromo-2,6-dimethylphenyl)-5-(pyrrolidin-1-yl)-2,6-dihydro-7H-[1,2,3]triazolo[4,5-d]pyrimidine-7-thione] | < 50 nM | < 500 nM
17 | CCN1CCN(c2nc3nn(-c4ccc(C5CC5)cc4C(F)(F)F)nc3c(=O)[nH]2)CC1 [Compound 100, 2-(4-cyclopropyl-2-(trifluoromethyl)phenyl)-5-(4-ethylpiperazin-1-yl)-2,6-dihydro-7H-[1,2,3]triazolo[4,5-d]pyrimidin-7-one] | < 100 nM | < 200 nM
18 | Cc1cc(C2CC2)cc(F)c1-n1nc2nc(N3CCOCC3)[nH]c(=O)c2n1 [Compound 104, 2-(4-cyclopropyl-2-fluoro-6-methylphenyl)-5-morpholino-2,6-dihydro-7H-[1,2,3]triazolo[4,5-d]pyrimidin-7-one] | < 6 nM | < 10 nM
19 | Cc1cc(Br)cc(C)c1-n1nc2nc(N3CCCC3)[nH]c(=O)c2n1 [Compound 51, 2-(4-bromo-2,6-dimethylphenyl)-5-(pyrrolidin-1-yl)-2,6-dihydro-7H-[1,2,3]triazolo[4,5-d]pyrimidin-7-one] | < 5 nM | < 5 nM
20 | O=c1[nH]c(N2CCCC2)nc2nn(-c3c(Cl)cc(Br)cc3Cl)nc12 [Compound 91, 2-(4-bromo-2,6-dichlorophenyl)-5-(pyrrolidin-1-yl)-2,6-dihydro-7H-[1,2,3]triazolo[4,5-d]pyrimidin-7-one] | 7.5 nM | < 15 nM
21 | Cc1cc(Br)cc(C)c1-n1nc2nc(N3CCOCC3)[nH]c(=O)c2n1 [Compound 1, 2-(4-bromo-2,6-dimethylphenyl)-5-morpholino-2,6-dihydro-7H-[1,2,3]triazolo[4,5-d]pyrimidin-7-one] | < 2.5 nM | < 20 nM
22 | CCN(CC)c1nc2nn(-c3c(C)cc(Br)cc3C)nc2c(=O)[nH]1 [Compound 95, 2-(4-bromo-2,6-dimethylphenyl)-5-(diethylamino)-2,6-dihydro-7H-[1,2,3]triazolo[4,5-d]pyrimidin-7-one] | < 6.2 nM | < 6.2 nM
23 | Cc1cc(C2CC2)cc(C)c1-n1nc2nc(N3CCCC3)[nH]c(=S)c2n1 [Compound 54, 2-(4-cyclopropyl-2,6-dimethylphenyl)-5-(pyrrolidin-1-yl)-2,6-dihydro-7H-[1,2,3]triazolo[4,5-d]pyrimidine-7-thione] | < 100 nM | < 100 nM
24 | Cc1cc(C2CC2)cc(C)c1-n1nc2nc(N3CCOCC3)[nH]c(=O)c2n1 [Compound 3, 2-(4-cyclopropyl-2,6-dimethylphenyl)-5-morpholino-2,6-dihydro-7H-[1,2,3]triazolo[4,5-d]pyrimidin-7-one] | < 5 nM | < 15 nM
25 | CCN1CCN(c2nc3nn(-c4c(C)cc(C5CC5)cc4F)nc3c(=O)[nH]2)CC1 [Compound 106, 2-(4-cyclopropyl-2-fluoro-6-methylphenyl)-5-(4-ethylpiperazin-1-yl)-2,6-dihydro-7H-[1,2,3]triazolo[4,5-d]pyrimidin-7-one] | > 100 nM | > 100 nM
26 | O=c1[nH]c(N2CCOCC2)nc2nn(-c3c(F)cc(C4CC4)cc3Cl)nc12 [Compound 103, 2-(2-chloro-4-cyclopropyl-6-fluorophenyl)-5-morpholino-2,6-dihydro-7H-[1,2,3]triazolo[4,5-d]pyrimidin-7-one] | < 10 nM | < 10 nM
